Source: patent US7592332B2, “Cytokine inhibitors” (Boehringer Ingelheim Pharmaceuticals, Inc., priority 2004, dated 2009)
Where a name gives a salt, the structure may show the parent alone.

melting point	Compound
72 to 74 °C (dec.)	COc1cnc(C(C)(C)C)cc1NC(=O)c1cc2cccc(Oc3ccnc(N4CCN(C)CC4)n3)c2n1C (as salt: salt) [Example 2, 1-methyl-7-[2-(4-methyl-piperazin-1-yl)-pyrimidin-4-yloxy]-1H-indole-2-carboxylic acid (2-tert-butyl-5-methoxy-pyridin-4-yl)-amide]
88 to 92 °C (dec.)	Cn1c(C(=O)Nc2cc(C(C)(C)C)ccc2[S+](C)[O-])cc2cccc(Oc3ccncc3)c21 (stereo not drawn) [Example 3, 1-methyl-7-(pyridine-4-yloxy)-1H-indole-2-carboxylic acid (5-tert-butyl-2-methanesulfinyl-phenyl)-amide]
158 to 159 °C (dec.)	Cn1c(C(=O)Nc2cc(C(C)(C)C)ccc2S(C)(=O)=O)cc2cccc(Oc3ccncc3)c21 [Example 4, 1-methyl-7-(pyridine-4-yloxy)-1H-indole-2-carboxylic acid (5-tert-butyl-2-methanesulfonyl-phenyl)-amide]
236 to 238 °C (dec.)	Cn1c(C(=O)Nc2cc(C(C)(C)C)c[nH]c2=O)cc2cccc(Oc3ccncc3)c21 [Example 5, 1-methyl-7-(pyridine-4-yloxy)-1H-indole-2-carboxylic acid (5-tert-butyl-2-oxo-1,2-dihydropyridin-3-yl)-amide]
74 to 76 °C (dec.)	Cn1cc(C(C)(C)C)cc(NC(=O)c2cc3cccc(Oc4ccncc4)c3n2C)c1=O [Example 6, 1-methyl-7-(pyridine-4-yloxy)-1H-indole-2-carboxylic acid (5-tert-butyl-1-methyl-2-oxo-1,2-dihydropyridin-3-yl)-amide]
52 to 56 °C (dec.)	Cc1ncc(C(C)(C)C)cc1NC(=O)c1cc2cccc(Oc3ccncc3)c2n1C [Example 7, 1-methyl-7-(pyridine-4-yloxy)-1H-indole-2-carboxylic acid (5-tert-butyl-2-methyl-pyridin-3-yl)-amide]
